In US11040031B2, “Pyrazole derivatives as MALT1 inhibitors” (Janssen Pharmaceutica NV, priority 2018, dated 2021):
Like-named read-outs stand apart in the source and are kept apart here.

What was measured:
[1] = system: Secretion of IL6 by OCI-LY3 ABC-DLBCL cells; test: Human IL6 Mesoscale assay (OCI-LY3); assay type: cell-based; conditions: read-out: Human IL6 Mesoscale assay (OCI-LY3)
Method: (§1) NFKB signaling regulates the secretion of multiple cytokines, including IL6 and IL10. Secretion of the cytokines IL6 and IL10 by TMD8 or OCI-LY3 ABC-DLBCL cells was measured using a mesoscale assay.
(§2) Cell passage number should not exceed 30. Cells should be kept between 0.5-2.5 million cells per mL during culturing and cells should be supplemented every 2-3 days with fresh 50 µM beta-mercaptoenthanol. No beta-mercaptoethanol was used during the mesoscale assay.
(§3) DMSO control wells were used to determine the maximum signal (High Control (HC)). […] Compounds and cells were incubated for 24 h at 37° C. and 5% CO2 (assay volume is 150 μL). After 24 h of incubation 50 μL of the supernatant was transferred to a MSD plate (V-Plex Proinflammation Panel 1 (human) kit, Mesoscale (MSD)) and incubated for 2 h with vigorous shaking (600 rpm) at room temperature. Following incubation, plates were washed 3× with PBS+0.05% Tween-20 and 25 μL detection antibody solution (IL6 & IL10 antibodies in diluent 3 (MSD)) was added per well followed by 2 h of incubation with vigorous shaking (600 rpm) at room temperature. After 3× washes with PBS+0.05% Tween-20, plates were incubated with 150 μL 2× Read Buffer T and read on SECTOR imager.

[2] = system: Secretion of IL10 by OCI-LY3 ABC-DLBCL cells; test: Human IL10 Mesoscale assay (OCI-LY3); assay type: cell-based; conditions: read-out: Human IL10 Mesoscale assay (OCI-LY3)
Method: as §1, §2, §3

[3] = biological target: T1, full-length MALT1 protein (Strep-MALT1(1-824)-His) (Homo sapiens, UniProt Q9UDY8); test: biochemical;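 also: fluorogenic LRSR-AMC substrate cleavage by MALT1, 50 min compound preincubation then 4 h reaction at RT, 11-point dilution from 30 µM, scaled between enzyme-free and untreated enzyme controls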
T1 sequence (Q9UDY8 1-824): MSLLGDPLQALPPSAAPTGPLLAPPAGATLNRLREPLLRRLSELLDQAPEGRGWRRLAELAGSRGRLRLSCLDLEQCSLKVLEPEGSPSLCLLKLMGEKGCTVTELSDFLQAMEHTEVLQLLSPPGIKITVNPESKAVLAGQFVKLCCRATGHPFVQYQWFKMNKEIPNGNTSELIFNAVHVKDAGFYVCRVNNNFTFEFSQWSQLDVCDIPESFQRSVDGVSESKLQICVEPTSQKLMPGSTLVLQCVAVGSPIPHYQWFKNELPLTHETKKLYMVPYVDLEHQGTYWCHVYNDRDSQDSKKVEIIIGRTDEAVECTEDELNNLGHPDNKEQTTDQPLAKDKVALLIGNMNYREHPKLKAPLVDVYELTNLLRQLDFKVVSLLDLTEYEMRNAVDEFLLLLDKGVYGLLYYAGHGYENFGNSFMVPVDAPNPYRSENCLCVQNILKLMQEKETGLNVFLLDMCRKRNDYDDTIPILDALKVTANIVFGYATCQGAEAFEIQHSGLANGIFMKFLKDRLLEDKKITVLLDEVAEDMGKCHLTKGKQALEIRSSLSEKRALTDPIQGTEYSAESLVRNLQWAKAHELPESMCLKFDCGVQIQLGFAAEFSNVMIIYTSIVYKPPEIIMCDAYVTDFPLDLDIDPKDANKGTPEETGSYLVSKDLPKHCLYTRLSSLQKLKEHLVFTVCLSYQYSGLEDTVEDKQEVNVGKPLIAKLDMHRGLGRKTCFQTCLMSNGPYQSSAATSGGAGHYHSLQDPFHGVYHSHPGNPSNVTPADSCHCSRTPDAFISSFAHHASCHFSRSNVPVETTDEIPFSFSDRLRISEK
Method: MALT1 protease activity was assessed in an in vitro assay using a tetrapeptide as substrate and full-length MALT1 protein (Strep-MALT1(1-824)-His) purified from baculovirus-infected insect cells. The tetrapeptide LRSR is coupled to AMC (7-amino-4-methylcoumarin) and provides a quenched, fluorescent substrate for the MALT1 protease (SM Biochemicals). Cleavage of AMC from the Arginine residue results in an increase in coumarin fluorescence measured at 460 nm (excitation 355 nm). […] Test compounds were spotted at 50 nL in 100% DMSO per well of a black 384-Proxiplate (Perkin Elmer). Test compound concentrations ranged from 30 μM to 0.5 nM using 11 dilution steps (1:3). Background signal was measured from control wells containing assay buffer without enzyme which functions as low control (LC). High control (HC) values were generated using the reaction with enzyme but no compound treatment. Compounds were pre-incubated with MALT1 enzyme for 50 minutes at RT. Substrate was added subsequently and fluorescence was measured in Labsystems fluoroskan at excitation 355 nm and emission 460 nm to determine time 0. The reaction was subsequently incubated for 4 h at RT and fluorescence was measured. […] The enzyme reaction was linear during the 4 h incubation period.
IC50 values were calculated using the following formula (Z prime should be >0.5):
From this an IC50 value (inhibitory concentration causing 50% inhibition) can be obtained. An estimate of the slope of the plot in terms of the Hill coefficient was also obtained.
With y=estimated response • UB=upper bound • LB=lower bound • h=hill

[4] = OCI-LY3 cells, 24 h incubation, supernatant, MSD V-Plex

Compound | IC50 [1, 4] | IC50 [2, 4] | IC50 [3] | IC50 ([1]; OCI-Ly3, 24 h) | IC50 ([2]; OCI-Ly3, 24 h)
N#Cc1cc(NC(=O)c2cnn(-c3ccc(F)c(F)c3F)c2C(F)(F)F)cnc1-n1nccn1 [Cpd 97, N-(5-cyano-6-(2H-1,2,3-triazol-2-yl)pyridin-3-yl)-5-(trifluoromethyl)-1-(2,3,4-trifluorophenyl)-1H-pyrazole-4-carboxamide] | 151 nM | 95 nM | 263 nM |  | 
N#Cc1cc(NC(=O)c2cnn(-c3c(Cl)cc(F)cc3Cl)c2C(F)(F)F)cnc1-n1nccn1 [Cpd 102, N-(5-cyano-6-(2H-1,2,3-triazol-2-yl)pyridin-3-yl)-1-(2,6-dichloro-4-fluorophenyl)-5-(trifluoromethyl)-1H-pyrazole-4-carboxamide] |  |  | 151 nM | 158 nM | 158 nM
O=C(Nc1cnc(-n2nccn2)c(Cl)c1)c1cnn(-c2ccc(F)cc2Cl)c1C(F)(F)F [Cpd 107, 1-(2-chloro-4-fluorophenyl)-N-(5-chloro-6-(2H-1,2,3-triazol-2-yl)pyridin-3-yl)-5-(trifluoromethyl)-1H-pyrazole-4-carboxamide] | 158 nM | 112 nM | 141 nM |  | 
N#Cc1cc(NC(=O)c2cnn(-c3ccccc3Cl)c2C(F)(F)F)cnc1-n1nccn1 [Cpd 116, 1-(2-chlorophenyl)-N-(5-cyano-6-(2H-1,2,3-triazol-2-yl)pyridin-3-yl)-5-(trifluoromethyl)-1H-pyrazole-4-carboxamide] | 107 nM | 105 nM | 117 nM |  | 
Nc1ccnc(-n2ncc(C(=O)Nc3cnc(-n4nccn4)c(Cl)c3)c2C(F)(F)F)c1Cl [Cpd 119, 1-(4-Amino-3-chloropyridin-2-yl)-N-(5-chloro-6-(2H-1,2,3-triazol-2-yl)pyridin-3-yl)-5-(trifluoromethyl)-1H-pyrazole-4-carboxamide] | 282 nM | 148 nM | 209 nM |  | 
Cc1cc(C#N)ccc1-n1ncc(C(=O)Nc2cnc(-n3nccn3)c(C#N)c2)c1C(F)(F)F [Cpd 126, 1-(4-cyano-2-methylphenyl)-N-(5-cyano-6-(2H-1,2,3-triazol-2-yl)pyridin-3-yl)-5-(trifluoromethyl)-1H-pyrazole-4-carboxamide] |  |  | 38 nM | 76 nM | 68 nM
CSc1ccccc1-n1ncc(C(=O)Nc2cnc(-n3nccn3)c(Cl)c2)c1C(F)(F)F [Cpd 137, N-(5-chloro-6-(2H-1,2,3-triazol-2-yl)pyridin-3-yl)-1-(2-(methylthio)phenyl)-5-(trifluoromethyl)-1H-pyrazole-4-carboxamide] | 123 nM | 100 nM | 151 nM |  | 
N#Cc1ccc(-n2ncc(C(=O)Nc3cnc(-n4nccn4)c(Cl)c3)c2C(F)(F)F)nc1N [Cpd 140, 1-(6-amino-5-cyanopyridin-2-yl)-N-(5-chloro-6-(2H-1,2,3-triazol-2-yl)pyridin-3-yl)-5-(trifluoromethyl)-1H-pyrazole-4-carboxamide] | 132 nM | 123 nM | 58 nM |  | 
Cc1cc(F)c(N)nc1-n1ncc(C(=O)Nc2cnc(-n3nccn3)c(Cl)c2)c1C(F)(F)F [Cpd 146, 1-(6-amino-5-fluoro-3-methylpyridin-2-yl)-N-(5-chloro-6-(2H-1,2,3-triazol-2-yl)pyridin-3-yl)-5-(trifluoromethyl)-1H-pyrazole-4-carboxamide] |  |  | 107 nM | 195 nM | 158 nM
Nc1nc(-n2ncc(C(=O)Nc3cnc(-n4nccn4)c(C(F)(F)F)c3)c2C(F)(F)F)ccc1F [Cpd 147, N-(6-(2H-1,2,3-triazol-2-yl)-5-(trifluoromethyl)pyridin-3-yl)-1-(6-amino-5-fluoropyridin-2-yl)-5-(trifluoromethyl)-1H-pyrazole-4-carboxamide] |  |  | 69 nM | 52 nM | 40 nM
Nc1cc(-n2ncc(C(=O)Nc3cnc(-n4nccn4)c(Cl)c3)c2C(F)(F)F)c(Cl)cn1 [Cpd 149, 1-(2-amino-5-chloropyridin-4-yl)-N-(5-chloro-6-(2H-1,2,3-triazol-2-yl)pyridin-3-yl)-5-(trifluoromethyl)-1H-pyrazole-4-carboxamide] | 166 nM | 155 nM | 85 nM |  | 
CNc1nc(-n2ncc(C(=O)Nc3cnc(-n4nccn4)c(C#N)c3)c2C(F)(F)F)ccc1F [Cpd 150, N-(5-cyano-6-(2H-1,2,3-triazol-2-yl)pyridin-3-yl)-1-(5-fluoro-6-(methylamino)pyridin-2-yl)-5-(trifluoromethyl)-1H-pyrazole-4-carboxamide] | 269 nM | 204 nM | 100 nM |  | 

The next lines start with the values.

IC50 [1, 4] | IC50 [2, 4] | IC50 [3] | IC50 ([1]; OCI-Ly3, 24 h) | IC50 ([2]; OCI-Ly3, 24 h) | Compound
372 nM | 324 nM | 158 nM |  |  | Cc1cc(F)cnc1-n1ncc(C(=O)Nc2cnc(-n3nccn3)c(C#N)c2)c1C(F)(F)F [Cpd 113, N-(5-cyano-6-(2H-1,2,3-triazol-2-yl)pyridin-3-yl)-1-(5-fluoro-3-methylpyridin-2-yl)-5-(trifluoromethyl)-1H-pyrazole-4-carboxamide]
74 nM | 76 nM | 26 nM |  |  | N#Cc1ccc(-n2ncc(C(=O)Nc3cnc(-n4nccn4)c(C#N)c3)c2C(F)(F)F)nc1N [Cpd 139, 1-(6-Amino-5-cyanopyridin-2-yl)-N-(5-cyano-6-(2H-1,2,3-triazol-2-yl)pyridin-3-yl)-5-(trifluoromethyl)-1H-pyrazole-4-carboxamide]
427 nM | 407 nM | 100 nM |  |  | Cc1ccc(N)nc1-n1ncc(C(=O)Nc2cnc(-n3nccn3)c(C#N)c2)c1C(F)(F)F [Cpd 141, 1-(6-amino-3-methylpyridin-2-yl)-N-(5-cyano-6-(2H-1,2,3-triazol-2-yl)pyridin-3-yl)-5-(trifluoromethyl)-1H-pyrazole-4-carboxamide]
676 nM | 355 nM | 22 nM |  |  | Cc1cnc(N)cc1-n1ncc(C(=O)Nc2cnc(-n3nccn3)c(C#N)c2)c1C(F)(F)F [Cpd 142, 1-(2-amino-5-methylpyridin-4-yl)-N-(5-cyano-6-(2H-1,2,3-triazol-2-yl)pyridin-3-yl)-5-(trifluoromethyl)-1H-pyrazole-4-carboxamide]
 |  | 110 nM | 1050 nM | 617 nM | Cc1c(-n2ncc(C(=O)Nc3cnc(-n4nccn4)c(C#N)c3)c2C(F)(F)F)ccnc1N [Cpd 143, 1-(2-amino-3-methylpyridin-4-yl)-N-(5-cyano-6-(2H-1,2,3-triazol-2-yl)pyridin-3-yl)-5-(trifluoromethyl)-1H-pyrazole-4-carboxamide]
 |  | 35 nM | 46 nM | 26 nM | N#Cc1cc(NC(=O)c2cnn(-c3ccc(Cl)c(N)n3)c2C(F)(F)F)cnc1-n1nccn1 [Cpd 144, 1-(6-amino-5-chloropyridin-2-yl)-N-(5-cyano-6-(2H-1,2,3-triazol-2-yl)pyridin-3-yl)-5-(trifluoromethyl)-1H-pyrazole-4-carboxamide]
 |  | 32 nM | 17 nM | 18 nM | Cc1cc(F)c(N)nc1-n1ncc(C(=O)Nc2cnc(-n3nccn3)c(C#N)c2)c1C(F)(F)F [Cpd 145, 1-(6-amino-5-fluoro-3-methylpyridin-2-yl)-N-(5-cyano-6-(2H-1,2,3-triazol-2-yl)pyridin-3-yl)-5-(trifluoromethyl)-1H-pyrazole-4-carboxamide]
 |  | 39 nM | 398 nM | 263 nM | N#Cc1cc(NC(=O)c2cnn(-c3cc(N)ncc3Cl)c2C(F)(F)F)cnc1-n1nccn1 [Cpd 148, 1-(2-amino-5-chloropyridin-4-yl)-N-(5-cyano-6-(2H-1,2,3-triazol-2-yl)pyridin-3-yl)-5-(trifluoromethyl)-1H-pyrazole-4-carboxamide]
